33 compounds from US6410558B1, “Fungicides for the control of take-all disease of plants” (Monsanto Technology LLC, priority 1991, dated 2002) can be followed below.

This assay deals with Gaeumannomyces graminis var. tritici (Ggt). The assay is described as follows: In vitro Assay: mycelial growth of Ggt on minimal media agar plates containing test compound. In kind it is cell-based. The note with it: Gaeumannomyces graminis, dark, 19-20° C., 4 to 5 days, diameter of mycelial growth; for inhibition at 0.1 ppm: 0.1 ppm in minimal media agar, read-out: In vitro (ppm) 0.1, Percent Inhibition; for inhibition at 1 ppm: 1 ppm in minimal media agar, read-out: In vitro (ppm) 1, Percent Inhibition; for inhibition at 10 ppm: 10 ppm in minimal media agar, read-out: In vitro (ppm) 10, Percent Inhibition. In outline:
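Compounds added from acetone stock into minimal (Czapek Dox) agar; plates inoculated with three 4-mm Ggt plugs, incubated in dark at 19-20° C for 4 to 5 days. Colony diameter measured; Percent Inhibition = [1-((treated mm −4)/(control mm −4))]×100.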

SMILES strings stand for the structures. Some results are limits rather than exact numbers.

Consider `CCNC(=O)c1cc([N+](=O)[O-])ccc1[Si](C)(C)C` [Example 214, N-Ethyl-5-nitro-2-(trimethylsilyl)benzamide], for which the inhibition at 0.1 ppm amounted to 3%, the inhibition at 1 ppm stood at 6% and the inhibition at 10 ppm was 77%.

In the case of `CCNC(=O)c1c(-c2ccccc2)cccc1[Si](C)(C)C` [Example 221, N-Ethyl-2-phenyl-6-(trimethylsilyl)benzamide], the inhibition at 0.1 ppm was 15%, the inhibition at 1 ppm stood at 46% and the inhibition at 10 ppm stood at 85%.

As to `CCN(C(=O)c1cc(N(C)C)ccc1[Si](C)(C)C)C(OC)C(C)(C)C` (stereo not drawn) [Example 222, 5-(Dimethylamino)-N-ethyl-N-(1-methoxy-2,2-dimethylpropyl)-2-(trimethylsilyl)benzamide], the inhibition at 0.1 ppm was less than 0%, the inhibition at 1 ppm was less than 0% and the inhibition at 10 ppm was determined as 96%.

As to `CCNC(=O)c1cc(C(F)(F)F)ccc1[Si](C)(C)C` [Example 225, N-Ethyl-5-(trifluoromethyl)-2-(trimethylsilyl)benzamide], the inhibition at 0.1 ppm is 18%, the inhibition at 1 ppm came out at 64% and the inhibition at 10 ppm was found to be 95%.

Take `CCNC(=O)c1cc(N(C)C)ccc1[Si](C)(C)C` [Example 226, 5-(Dimethylamino)-N-ethyl-2-(trimethylsilyl)benzamide]: the inhibition at 0.1 ppm turned out to be 32%, the inhibition at 1 ppm was 91% and the inhibition at 10 ppm was determined as 100%.

As to `CCNC(=O)c1c([Si](C)(C)C)ccc(C#N)c1Cl` [Example 229, 2-Chloro-3-cyano-N-ethyl-6-(trimethylsilyl)benzamide], the inhibition at 0.1 ppm was less than 0%, the inhibition at 1 ppm came out at 28% and the inhibition at 10 ppm worked out at 88%.

In the case of `CCNC(=O)c1c([Si](C)(C)C)ccc(C)c1Cl` [Example 230, 2-Chloro-N-ethyl-3-methyl-6-(trimethylsilyl)benzamide], the inhibition at 0.1 ppm came to 88%, the inhibition at 1 ppm amounted to 96% and the inhibition at 10 ppm stood at 96%.

As to `CCNC(=O)c1c([Si](C)(C)C)ccc(SC)c1Cl` [Example 231, 2-Chloro-N-ethyl-3-(methylthio)-6-(trimethylsilyl)benzamide], the inhibition at 0.1 ppm is less than 0%, the inhibition at 1 ppm was found to be 76% and the inhibition at 10 ppm is 96%.

Take `CCNC(=O)c1c(Cl)ccc(N)c1[Si](C)(C)C` [Example 233, 3-Amino-6-chloro-N-ethyl-2-(trimethylsilyl)benzamide]: the inhibition at 0.1 ppm was determined as 28%, the inhibition at 1 ppm worked out at 24% and the inhibition at 10 ppm was 76%.

Take `CCNC(=O)c1c(Cl)cc(Cl)cc1[Si](C)(C)C` [Example 234, 2,4-Dichloro-N-ethyl-6-(trimethylsilyl)benzamide]: the inhibition at 0.1 ppm was less than 0%, the inhibition at 1 ppm was 32% and the inhibition at 10 ppm was 81%.

With `CCNC(=O)c1c(Cl)cc(C(C)(C)C)cc1[Si](C)(C)C` [Example 235, 2-Chloro-4-(1,1-dimethylethyl)-N-ethyl-6-(trimethylsilyl)benzamide], the inhibition at 0.1 ppm came to 3%, the inhibition at 1 ppm is less than 0% and the inhibition at 10 ppm came to 70%.

For `CCNC(=O)c1c(Br)ccc(OC)c1[Si](C)(C)C` [Example 236, 6-Bromo-N-ethyl-3-methoxy-2-(trimethylsilyl)benzamide], the inhibition at 0.1 ppm was less than 0%, the inhibition at 1 ppm amounted to 68% and the inhibition at 10 ppm turned out to be 86%.

As for `CCNC(=O)c1c(Cl)ccc(N(C)C)c1[Si](C)(C)C` [Example 237, 6-Chloro-3-(dimethylamino)-N-ethyl-2-(trimethylsilyl)benzamide], the inhibition at 0.1 ppm stood at 44%, the inhibition at 1 ppm stood at 93% and the inhibition at 10 ppm amounted to 96%.

In the case of `CCNC(=O)c1c([Si](C)(C)C)ccc(S(C)(=O)=O)c1Cl` [Example 238, 2-Chloro-N-ethyl-3-(methylsulfonyl)-6-(trimethylsilyl)benzamide], the inhibition at 0.1 ppm is less than 0%, the inhibition at 1 ppm was less than 0% and the inhibition at 10 ppm was found to be 72%.

`CCNC(=O)c1c([Si](C)(C)C)ccc(I)c1Cl` [Example 239, 2-Chloro-N-ethyl-3-iodo-6-(trimethylsilyl)benzamide]: the inhibition at 0.1 ppm was found to be 22%, the inhibition at 1 ppm was found to be 57% and the inhibition at 10 ppm was found to be 87%.

In the case of `CCNC(=O)c1cc(NC(=O)c2ccccc2)ccc1[Si](C)(C)C` [Example 240, 5-(Benzoylamino)-N-ethyl-2-(trimethylsilyl)benzamide], the inhibition at 0.1 ppm is 26%, the inhibition at 1 ppm stood at 22% and the inhibition at 10 ppm stood at 65%.

In the case of `CCNC(=O)c1c([Si](C)(C)C)ccc(/C=C/[N+](=O)[O-])c1Cl` [Example 241, 2-Chloro-N-ethyl-3-(2-(E)-nitro-ethenyl)-6-(trimethylsilyl)benzamide], the inhibition at 0.1 ppm was determined as 13%, the inhibition at 1 ppm was 87% and the inhibition at 10 ppm is 100%.

`CCNC(=O)c1c([Si](C)(C)C)ccc(-c2ccccc2)c1Cl` [Example 242, 2-Chloro-N-ethyl-3-phenyl-6-(trimethylsilyl)benzamide]: the inhibition at 0.1 ppm came out at 27%, the inhibition at 1 ppm is less than 0% and the inhibition at 10 ppm was found to be 67%.

Take `CCNC(=O)c1c([Si](C)(C)C)ccc(C(C)=O)c1Cl` [Example 243, 3-Acetyl-2-chloro-N-ethyl-6-(trimethylsilyl)benzamide]: the inhibition at 0.1 ppm stood at 23%, the inhibition at 1 ppm came out at 10% and the inhibition at 10 ppm worked out at 83%.

As for `CCNC(=O)c1c([Si](C)(C)C)ccc(C(=O)OC)c1Cl` [Example 244, 2-Chloro-3-[(ethylamino)carbonyl]-4-(trimethylsilyl)benzoic acid, methyl ester], the inhibition at 0.1 ppm was 10%, the inhibition at 1 ppm was determined as 20% and the inhibition at 10 ppm was found to be 53%.

`CCNC(=O)c1cc(N=C=S)ccc1[Si](C)(C)C` [Example 245, N-Ethyl-5-isothiocyanato-2-(trimethylsilyl)benzamide]: the inhibition at 0.1 ppm was found to be 50%, the inhibition at 1 ppm was 100% and the inhibition at 10 ppm is 100%.

With `CCNC(=O)c1cccc([N+](=O)[O-])c1[Si](C)(C)C` [Example 246, N-Ethyl-3-nitro-2-(trimethylsilyl)benzamide], the inhibition at 0.1 ppm is less than 0%, the inhibition at 1 ppm amounted to 2% and the inhibition at 10 ppm was 61%.

For the compound `CCNC(=O)c1ccccc1OC(C)(C)C` [Example 247, N-Ethyl-2-(1,1-dimethylethoxy)benzamide], the inhibition at 0.1 ppm was less than 0%, the inhibition at 1 ppm turned out to be 16% and the inhibition at 10 ppm was determined as 59%.

As for `CCNC(=O)c1sccc1[Si](C)(C)C` [Example 248, N-Ethyl-3-(trimethylsilyl)-2-thiophenecarboxamide], the inhibition at 0.1 ppm stood at 10%, the inhibition at 1 ppm turned out to be 10% and the inhibition at 10 ppm stood at 100%.

As to `CCN(CC)C(=O)c1c([Si](C)(C)C)coc1[Si](C)(C)C` [Example 250, N,N-Diethyl-2,4-bis(trimethylsilyl)-3-furancarboxamide], the inhibition at 0.1 ppm is less than 0%, the inhibition at 1 ppm is less than 0% and the inhibition at 10 ppm was determined as 41%.

Turning to `CCNC(=O)c1oc([Si](C)(C)C)cc1[Si](C)(C)C` [Example 251, N-Ethyl-3,5-bis(trimethylsilyl)-2-furancarboxamide], the inhibition at 0.1 ppm worked out at 3%, the inhibition at 1 ppm was found to be 36% and the inhibition at 10 ppm worked out at 97%.

`CCNC(=O)c1occc1[Si](C)(C)C` [Example 252, N-Ethyl-3-(trimethylsilyl)-2-furancarboxamide]: the inhibition at 0.1 ppm amounted to 5%, the inhibition at 1 ppm is 28% and the inhibition at 10 ppm stood at 100%.

`CCNC(=O)c1cccn1C[Si](C)(C)C` [Example 253, N-Ethyl-1-[(trimethylsilyl)methyl]-1H-pyrrole-2-carboxamide]: the inhibition at 0.1 ppm was less than 0%, the inhibition at 1 ppm turned out to be 14% and the inhibition at 10 ppm came to 62%.

As for `CCN(CC)C(=O)c1sccc1[Si](C)(C)C` [Example 255, N,N-Diethyl-3-(trimethylsilyl)-2-thiophenecarboxamide], the inhibition at 0.1 ppm is less than 0%, the inhibition at 1 ppm was less than 0% and the inhibition at 10 ppm was determined as 73%.

Turning to `CCNC(=O)c1sc(C)cc1[Si](C)(C)C` [Example 256, N-Ethyl-5-methyl-3-(trimethylsilyl)-2-thiophenecarboxamide], the inhibition at 0.1 ppm is less than 0%, the inhibition at 1 ppm is less than 0% and the inhibition at 10 ppm was found to be 100%.

`CCNC(=O)c1sc(I)cc1[Si](C)(C)C` [Example 257, N-Ethyl-5-iodo-3-(trimethylsilyl)-2-thiophenecarboxamide]: the inhibition at 0.1 ppm came out at 3%, the inhibition at 1 ppm was 23% and the inhibition at 10 ppm was found to be 100%.

With `CCNC(=O)c1sc(C=O)cc1[Si](C)(C)C` [Example 258, N-Ethyl-5-formyl-3-(trimethylsilyl)-2-thiophenecarboxamide], the inhibition at 0.1 ppm was found to be 19%, the inhibition at 1 ppm came to 19% and the inhibition at 10 ppm amounted to 42%.

Regarding `CCNC(=O)c1sncc1[Si](C)(C)C` [Example 259, N-Ethyl-4-(trimethylsilyl)-5-isothiazolecarboxamide], the inhibition at 0.1 ppm amounted to 19%, the inhibition at 1 ppm came out at 11% and the inhibition at 10 ppm was 80%.

A word on the inhibition: it is how much of the control response was suppressed.
